Measured values from paper PMC10667233, “New cytotoxic dammarane type saponins from Ziziphus spina-christi” (Scientific Reports, 2023).
In brackets after ≈: the same amount, converted by molar mass. Where two headings read alike, the source gives them in different places.

Experiments:
[1] = system: EBV-EA; details: cited from earlier work
[2] = system: breast cancer cell line MDA-MB-231; set-up: method as in PMID 19960417; details: 50 μmol/l, MDA-MB-231 in vitro; cited from earlier work
[3] = system: sarcoma S180; set-up: method as in PMID 19960417; details: 50 μmol/kg, mice implanted with sarcoma S180; cited from earlier work
[4] = system: MDA-MB-231; assay: MTS cell viability, MDA-MB-231 breast cancer cells; format: cell-based; details: Homo sapiens, read-out: IC50 (µg/mL) values
Method: (§1) A549, U87, MDA-MB-231, and CT-26 cells were purchased from American Type Culture Collection (ATCC) (Manassas, VA, USA). The cells, A549 and CT-26 were cultured in RPMI-1640 supplemented with 1% Pen/Strep (100 U mL^–1, Gibco, Carlsbad, CA) and 10% FBS (Atlanta Biologicals, Flowery Branch, GA). While MDA-MB-231 and U87 cells were cultured in DMEM medium supplemented with 1% Pen/Strip and 10% FBS. Cells were incubated at 37 °C and 5% CO2 in humidified incubator (Sanyo Scientific Autoflow, Hudson, MA).
(§2) A549, U87, MDA-MB-231, and CT-26 cancer cells were plated in 96-well plates at a density of 2X10^4 cells/well in 100 μL of medium before the addition of different concentrations of the plant extracts. Untreated control group was incubated with^-100 µL/well of fresh media and^-methanol. After 24 h., the medium was aspirated and replaced by-100 µL of fresh media, and 20 µL of MTS^-reagent in each well (CellTiter 96^-Aqueous One^-Solution cell^-proliferation assay, Promega^-Corporation, Madison,^-WI,^-USA). The plates were then incubated at 37 °C with 5% CO2 for 2 h. The absorbance was measured at 490 nm using a Spectramax plus 384 Microplate reader (Molecular Devices, Sunnyvale, CA, USA). Relative cell viability values were expressed as the percentage of the absorbance from the treated wells compared to the control wells (untreated), given that the control wells viability was set to 100%. The cells were examined under a cell imaging system (EVOS FL Digital Microscope) using a 20X objective as well before getting rid of the plates. The half-maximal inhibitory concentrations (IC50) of pure compounds for four […] cancer cell lines were calculated.
(§3) Figure 3 The anticancer activities of the three pure compounds (1–3) isolated from Ziziphus spina-christi using the MTS assay on glioblastoma, breast cancer, lung, and colorectal carcinoma cells. Cancer cells lines A549 (a) U87 (b), MDA-MB-231 (c) and CT-26 […] were tested. […] Cells were stained with MTS reagents and cell survival was quantitated using the spectramax plate reader. […]

[5] = system: U87; assay: MTS cell viability, U87 glioblastoma cells; format: cell-based; details: Homo sapiens, U-87 MG, 24 h, read-out: IC50 (µg/mL) values
Method: as §1, §2, §3

[6] = system: A549; assay: MTS cell viability, A549 lung cancer cells; format: cell-based; details: Homo sapiens, read-out: IC50 (µg/mL) values
Method: as §1, §2, §3

[7] = system: CT-26; assay: MTS cell viability, CT-26 colorectal carcinoma cells; format: cell-based; details: read-out: IC50 (µg/mL) values
Method: as §1, §2, §3

[8] = system: A549 cells; set-up: method as in PMID 26922140; details: concentration-dependent; cited from earlier work

C=C(C)[C@@H]1CC[C@]2(C)[C@H](CC[C@@H]3[C@@H]([C@@](C)(O)CCC=C(C)C)CC[C@]32C)[C@@]1(C)CCC(=O)O [dammarenolic acid]
IC50 [1]: 226 mol ratio/32 pmol TPA

CC(C)=CC1C[C@](C)(O)[C@@H]2[C@@H]3CC[C@@H]4[C@@]5(C)CC[C@H](O[C@@H]6OC[C@H](O)[C@H](O[C@@H]7O[C@H](CO)[C@@H](O)[C@H](O)[C@H]7O)[C@H]6O[C@@H]6O[C@@H](CO)[C@H](O)[C@H]6O)C(C)(C)[C@@H]5CC[C@@]4(C)[C@]34CO[C@@]2(C4)O1 (stereo partly drawn) [bacopaside VII]
adhesion, migration, and matrigel invasion (in words) [2]: markedly reduced
inhibition [3]: 84.13%

CC(C)=CC1CC(C)(O)C2C3CCC4C5(C)CCC(OC6OCC(O)C(OC7OC(CO)C(OC(=O)C=Cc8ccc(O)cc8)C(O)C7O)C6OC6OC(C)C(O)C(O)C6O)C(C)(C)C5CCC4(C)C34COC2(C4)O1 (stereo not drawn) [Compound 1, Christinin E]
IC50 ([4]; MDA-MB-231, MTS, 24 h): 6.02 ± 1.5 µg/mL (≈ 5.68 µM)
IC50 ([5]; U87, MTS): 5.7 ± 1.63 µg/mL (≈ 5.38 µM)
IC50 ([6]; A549, MTS, 24 h): 9.53 ± 0.01 µg/mL (≈ 9 µM)
IC50 ([7]; CT26, CT-26, MTS, 24 h): 0.7 ± 0.049 µg/mL (≈ 0.661 µM)

bacopaside É
adhesion, migration, and matrigel invasion (in words) [2]: markedly reduced
inhibition [3]: 90.52%

gypenoside Jh1
cytotoxicity (in words) [8]: strong cytotoxicity

CC(C)=CC1CC(C)(O)C2C3CCC4C5(C)CCC(OC6OCC(O)C(OC7OC(CO)C(OC(=O)C=Cc8ccc(OC(=O)C(=O)O)cc8)C(O)C7O)C6OC6OC(C)C(O)C(O)C6O)C(C)(C)C5CCC4(C)C34COC2(C4)O1 (stereo not drawn) [Compound 2, Christinin F]
IC50 ([4]; MDA-MB-231, MTS, 24 h): 5.81 ± 0.087 µg/mL (≈ 5.14 µM)
IC50 ([5]; U87, MTS): 4.16 ± 0.87 µg/mL (≈ 3.68 µM)
IC50 ([6]; A549, MTS, 24 h): 4.89 ± 0.93 µg/mL (≈ 4.32 µM)
IC50 ([7]; CT26, CT-26, MTS, 24 h): 7.21 ± 0.35 µg/mL (≈ 6.37 µM)

CC(C)=CC1CC(C)(O)C2C3CCC4C5(C)CCC(OC6OCC(O)C(OC7OC(CO)C(O)C(O)C7O)C6OC6OC(C)C(O)C(O)C6O)C(C)(C)C5CCC4(C)C34COC2(C4)O1 (stereo not drawn) [Compound 3, christinin A]
IC50 ([4]; MDA-MB-231, 24 h): 9.3 ± 0.19 µg/mL (≈ 10.2 µM)
IC50 [5]: 7.28 ± 0.56 µg/mL (≈ 7.97 µM)
IC50 ([6]; A549, 24 h): 5.67 ± 1.05 µg/mL (≈ 6.21 µM)
IC50 ([7]; CT26, 24 h): 5.47 ± 1.3 µg/mL (≈ 5.99 µM)
